From patent US20240352021A1 (DANA-FARBER CANCER INSTITUTE, INC., priority 2021, published 2024)

Columns and labels:
[1] = target: EGFR L858R/C797S Ba/F3 cells (Homo sapiens, UniProt P00533, C797S/L858R, cells depend on it); assay: Ba/F3 cell proliferation (Cell Titer Glo), EGFR L858R/C797S; assay type: cell-based, murine; details: 72 hours, Table 6
Description: (§1) The EGFR mutant L858R Ba/F3 cells have been previously described (Zhou, W., et al. Nature 462, 2009, 1070-1074). The EGFR C797S and C775S mutations were introduced via site directed mutagenesis using the Quick Change Site-Directed Mutagenesis kit into a vector containing EGFR L858R mutation (Stratagene; La Jolla, CA) according to the manufacturer's instructions. All constructs were confirmed by DNA sequencing. The constructs were then shuttled into the retroviral vector JP1540 by either using the Cre-recombination system (Agilent Technologies, Santa Clara, CA) or the In-fusion HD Cloning kit (Takara Bio USA, Inc.; Mountain view, CA). Ba/F3 cells were then infected with retrovirus per standard protocols, as described previously (Zhou, et al, Nature 2009). Stable clones were obtained by selection in puromycin (2 μg/ml). All BaF/3 mutant cells were maintained in RPMI 1640 (Cellgro; Mediatech Inc., Herndon, CA) supplemented with 10% FBS, 100 units/mL penicillin, 100 units/mL streptomycin.
(§2) Growth and inhibition of growth was assessed by the Cell Titer Glo assay (Promega, Madison, WI) and was performed according to the manufacturer's instructions. The Cell Titer Glo assay is a luminescence-based method used to determine the number of viable cells based on quantitation of the ATP present, which is directly proportional to the amount of metabolically active cells present. Ba/F3 cells of different EGFR genotypes were exposed to compounds for 72 hours and the number of cells used per experiment was determined empirically as has been previously established (Zhou, et al., Nature 2009). All experimental points were set up in triplicates in 384-well plates. […] The curves were fitted using a non-linear regression model with a sigmoidal dose response.
(§3) Ba/F3 cells assay data are provided below in Table 5 and Table 6. For inhibitory activity against EGFR mutants, the following designations are used: <0.1 μM=A, 0.1 μM˜0.5 μM=B, 0.5 μM˜2.5 μM=C, ≥2.5 μM=D

EGFR L858R/T790M = EGFR L858R/T790M (Homo sapiens, UniProt P00533, L858R/T790M); assay: EGFR biochemical assay (headed HTRF-based; method describes Z'-LYTE), L858R/T790M; details: Table 4
Sequence of EGFR L858R/T790M (P00533 25-1210 T790M/L858R): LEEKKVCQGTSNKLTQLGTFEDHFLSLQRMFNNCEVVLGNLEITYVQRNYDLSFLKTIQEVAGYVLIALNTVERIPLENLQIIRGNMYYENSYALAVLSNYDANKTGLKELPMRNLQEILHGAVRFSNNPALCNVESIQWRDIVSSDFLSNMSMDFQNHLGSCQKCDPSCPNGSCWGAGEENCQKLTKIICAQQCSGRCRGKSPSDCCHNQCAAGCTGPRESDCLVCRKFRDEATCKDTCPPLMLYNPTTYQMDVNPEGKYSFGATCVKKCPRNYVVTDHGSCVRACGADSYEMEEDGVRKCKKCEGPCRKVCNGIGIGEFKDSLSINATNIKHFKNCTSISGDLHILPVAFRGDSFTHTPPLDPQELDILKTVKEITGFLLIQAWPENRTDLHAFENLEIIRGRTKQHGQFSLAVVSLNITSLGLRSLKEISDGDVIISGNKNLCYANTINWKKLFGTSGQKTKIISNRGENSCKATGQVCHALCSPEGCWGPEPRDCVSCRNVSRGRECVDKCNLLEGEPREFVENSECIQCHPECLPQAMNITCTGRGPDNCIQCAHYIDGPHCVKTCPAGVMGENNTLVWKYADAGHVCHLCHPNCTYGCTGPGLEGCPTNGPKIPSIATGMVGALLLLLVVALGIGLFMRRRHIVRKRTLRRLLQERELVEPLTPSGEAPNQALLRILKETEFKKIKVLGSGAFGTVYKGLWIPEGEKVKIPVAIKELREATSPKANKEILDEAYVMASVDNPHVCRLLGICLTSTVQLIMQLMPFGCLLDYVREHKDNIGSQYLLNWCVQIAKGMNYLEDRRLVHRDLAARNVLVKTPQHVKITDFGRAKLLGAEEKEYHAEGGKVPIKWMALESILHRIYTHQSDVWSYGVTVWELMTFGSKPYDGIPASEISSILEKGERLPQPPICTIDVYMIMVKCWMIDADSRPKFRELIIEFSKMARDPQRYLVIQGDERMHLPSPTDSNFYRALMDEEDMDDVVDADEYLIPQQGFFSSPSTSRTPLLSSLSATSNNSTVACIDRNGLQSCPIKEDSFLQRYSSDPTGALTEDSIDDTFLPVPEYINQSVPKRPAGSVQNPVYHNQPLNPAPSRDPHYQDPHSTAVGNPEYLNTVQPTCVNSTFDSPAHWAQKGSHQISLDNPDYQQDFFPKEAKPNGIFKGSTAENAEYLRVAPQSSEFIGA
Experimental: (§4) To measure the IC50 values of compounds herein against EGFR, a Z′-LYTE assay (ThermoFisher) was used. Briefly, 2.5 μL of different concentrations of the compounds in 4% DMSO were added to 5 μL kinase/peptide mixture in each well of a 384-well plate (Corning Cat. #3676). 2.5 μL of 4× ATP solution (4× ATP, 50 mM HEPES, pH 7.5, 0.01% BRIJ-35, 10 mM MgCl2, 1 mM EGTA) were added to each well. The plate was shaken for 30 seconds, and then incubated at room temperature for 60 minutes. 5 μL of a 1:100000 dilution of Development Reagent A was added to each well. The plate was then incubated for 60 mins at room temperature. 5 μL of the stop reagent was then added. The plate was subsequently read on a fluorescence plate reader, and the emissions ratio was calculated to determine the ratio of Ser/Thr 07 phosphorylated by the reaction. Emissions Ratio═Coumarin Emission (443 nm)/Flourescein Emission (520 nm).
(§5) HTRF-based EGFR assay data are provided below in Table 4.

EGFR L858R = EGFR L858R (Homo sapiens, UniProt P00533, L858R); assay: EGFR biochemical assay (headed HTRF-based; method describes Z'-LYTE), L858R; details: Table 4
Sequence of EGFR L858R (P00533 25-1210 L858R): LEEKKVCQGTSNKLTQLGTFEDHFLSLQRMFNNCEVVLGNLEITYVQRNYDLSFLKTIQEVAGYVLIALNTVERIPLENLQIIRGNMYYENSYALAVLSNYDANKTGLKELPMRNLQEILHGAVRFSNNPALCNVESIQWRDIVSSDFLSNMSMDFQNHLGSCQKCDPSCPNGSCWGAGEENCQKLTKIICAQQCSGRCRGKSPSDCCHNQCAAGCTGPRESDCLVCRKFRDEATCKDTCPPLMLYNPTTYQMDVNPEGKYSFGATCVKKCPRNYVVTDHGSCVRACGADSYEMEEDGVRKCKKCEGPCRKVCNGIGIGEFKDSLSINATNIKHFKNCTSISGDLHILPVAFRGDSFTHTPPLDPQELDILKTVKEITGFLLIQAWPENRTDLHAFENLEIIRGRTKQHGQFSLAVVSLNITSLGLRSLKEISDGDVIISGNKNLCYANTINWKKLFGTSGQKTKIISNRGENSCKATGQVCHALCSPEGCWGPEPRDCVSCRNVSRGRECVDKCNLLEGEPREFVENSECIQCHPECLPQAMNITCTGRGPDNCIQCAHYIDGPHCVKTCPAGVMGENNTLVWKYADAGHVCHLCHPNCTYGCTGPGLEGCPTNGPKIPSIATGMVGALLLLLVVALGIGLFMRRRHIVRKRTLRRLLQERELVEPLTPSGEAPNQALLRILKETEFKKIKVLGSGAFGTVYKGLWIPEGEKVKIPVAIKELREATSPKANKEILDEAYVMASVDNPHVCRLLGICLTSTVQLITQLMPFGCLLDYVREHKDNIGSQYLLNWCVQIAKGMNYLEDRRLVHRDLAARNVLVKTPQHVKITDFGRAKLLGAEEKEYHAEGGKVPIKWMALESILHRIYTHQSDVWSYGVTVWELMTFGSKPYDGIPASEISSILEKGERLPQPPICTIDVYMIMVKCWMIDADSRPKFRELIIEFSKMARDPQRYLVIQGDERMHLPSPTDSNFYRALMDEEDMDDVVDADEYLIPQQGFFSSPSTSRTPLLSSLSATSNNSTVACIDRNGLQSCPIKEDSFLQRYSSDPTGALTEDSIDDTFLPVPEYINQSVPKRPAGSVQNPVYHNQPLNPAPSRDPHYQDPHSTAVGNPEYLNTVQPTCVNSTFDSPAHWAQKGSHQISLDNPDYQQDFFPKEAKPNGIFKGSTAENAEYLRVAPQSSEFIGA
Experimental: as §4, §5

[2] = target: EGFR mutant L858R Ba/F3 cells (Homo sapiens, UniProt P00533, L858R, cells depend on it); assay: Ba/F3 cell proliferation (Cell Titer Glo), EGFR L858R; assay type: cell-based, murine; details: 72 hours, Table 6, read-out: L858R BaF3
Sequence of EGFR mutant L858R Ba/F3 cells (P00533 whole entry L858R): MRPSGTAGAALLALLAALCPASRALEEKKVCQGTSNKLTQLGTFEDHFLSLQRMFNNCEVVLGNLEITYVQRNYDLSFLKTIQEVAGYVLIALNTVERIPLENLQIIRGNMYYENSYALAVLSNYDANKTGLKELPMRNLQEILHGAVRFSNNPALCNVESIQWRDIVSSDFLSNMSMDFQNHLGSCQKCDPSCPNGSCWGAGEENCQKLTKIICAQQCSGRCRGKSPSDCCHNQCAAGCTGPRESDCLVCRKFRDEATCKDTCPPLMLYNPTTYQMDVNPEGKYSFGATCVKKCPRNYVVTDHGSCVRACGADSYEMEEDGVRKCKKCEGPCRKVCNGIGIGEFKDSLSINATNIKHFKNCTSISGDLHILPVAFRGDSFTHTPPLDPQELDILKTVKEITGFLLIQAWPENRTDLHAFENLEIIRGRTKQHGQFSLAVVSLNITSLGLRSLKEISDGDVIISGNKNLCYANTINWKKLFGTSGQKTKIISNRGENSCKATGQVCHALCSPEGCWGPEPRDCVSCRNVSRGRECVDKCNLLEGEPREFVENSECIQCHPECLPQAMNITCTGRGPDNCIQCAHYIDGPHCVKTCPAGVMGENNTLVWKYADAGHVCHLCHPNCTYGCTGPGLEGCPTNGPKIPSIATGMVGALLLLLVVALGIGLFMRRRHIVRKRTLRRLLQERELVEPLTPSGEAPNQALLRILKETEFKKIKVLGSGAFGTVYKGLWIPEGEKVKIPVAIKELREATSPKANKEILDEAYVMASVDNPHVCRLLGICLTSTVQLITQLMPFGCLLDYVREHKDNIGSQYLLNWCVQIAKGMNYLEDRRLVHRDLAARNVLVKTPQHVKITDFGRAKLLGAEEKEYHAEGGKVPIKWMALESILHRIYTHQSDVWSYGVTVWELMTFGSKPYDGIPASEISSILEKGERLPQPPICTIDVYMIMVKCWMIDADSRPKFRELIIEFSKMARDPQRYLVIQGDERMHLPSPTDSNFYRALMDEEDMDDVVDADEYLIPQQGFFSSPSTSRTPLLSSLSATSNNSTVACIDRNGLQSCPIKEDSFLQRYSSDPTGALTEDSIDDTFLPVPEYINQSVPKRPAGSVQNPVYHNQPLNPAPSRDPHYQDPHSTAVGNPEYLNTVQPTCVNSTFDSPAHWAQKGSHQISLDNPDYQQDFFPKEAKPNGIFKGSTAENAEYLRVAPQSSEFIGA
Description: as §1, §2, §3

Sequence of EGFR L858R/C797S Ba/F3 cells (P00533 whole entry C797S/L858R, the tested form may be a part): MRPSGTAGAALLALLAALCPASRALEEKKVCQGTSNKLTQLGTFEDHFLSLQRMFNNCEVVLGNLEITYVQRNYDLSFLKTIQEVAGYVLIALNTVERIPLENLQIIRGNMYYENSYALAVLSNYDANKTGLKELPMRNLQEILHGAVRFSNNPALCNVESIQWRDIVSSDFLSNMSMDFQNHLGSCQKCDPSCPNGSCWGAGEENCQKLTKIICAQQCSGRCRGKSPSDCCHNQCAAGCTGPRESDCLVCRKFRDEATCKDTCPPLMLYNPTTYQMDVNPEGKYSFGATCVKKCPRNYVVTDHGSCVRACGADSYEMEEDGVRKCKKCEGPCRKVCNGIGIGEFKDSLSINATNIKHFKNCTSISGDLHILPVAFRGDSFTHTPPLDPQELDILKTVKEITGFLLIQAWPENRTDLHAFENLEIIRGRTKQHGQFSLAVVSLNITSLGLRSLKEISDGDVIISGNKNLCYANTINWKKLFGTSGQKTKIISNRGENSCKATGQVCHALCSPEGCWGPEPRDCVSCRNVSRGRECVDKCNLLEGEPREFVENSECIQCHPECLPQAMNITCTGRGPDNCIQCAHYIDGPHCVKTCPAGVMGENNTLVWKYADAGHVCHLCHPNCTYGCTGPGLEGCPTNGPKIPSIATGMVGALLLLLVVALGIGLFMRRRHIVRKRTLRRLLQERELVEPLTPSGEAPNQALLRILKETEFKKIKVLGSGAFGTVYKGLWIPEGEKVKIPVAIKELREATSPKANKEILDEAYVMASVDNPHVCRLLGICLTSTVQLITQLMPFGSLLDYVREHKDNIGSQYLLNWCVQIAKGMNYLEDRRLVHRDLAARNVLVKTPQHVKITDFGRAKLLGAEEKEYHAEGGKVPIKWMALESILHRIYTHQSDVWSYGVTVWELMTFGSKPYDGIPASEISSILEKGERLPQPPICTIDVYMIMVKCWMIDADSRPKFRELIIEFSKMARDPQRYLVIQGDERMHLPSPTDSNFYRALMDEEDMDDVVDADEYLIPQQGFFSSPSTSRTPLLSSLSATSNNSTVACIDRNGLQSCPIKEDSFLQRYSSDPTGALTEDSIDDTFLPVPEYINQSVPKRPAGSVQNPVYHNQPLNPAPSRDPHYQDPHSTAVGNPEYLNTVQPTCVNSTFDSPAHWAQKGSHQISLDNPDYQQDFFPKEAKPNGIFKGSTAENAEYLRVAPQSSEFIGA

GI50 [1]	IC50 (EGFR L858R/T790M)	IC50 (EGFR L858R)	GI50 [2]	SMILES
100 to 500 nM	> 1000 nM	43 nM	< 100 nM	[2H]C1(N2Cc3cnc(Nc4ccc(N5CCN(C)CC5)cc4)nc3N(C)C2=O)CCN(C(=O)C=C)c2c(OC)cccc21 (centres unmarked) [Compound 130, 3-(4-deuterio-8-methoxy-1-prop-2-enoyl-2,3-dihydroquinolin-4-yl)-1-methyl-7-[4-(4-methylpiperazin-1-yl)anilino]-4H-pyrimido[4,5-d]pyrimidin-2-one]
100 to 500 nM	> 1000 nM	38.9 nM	< 100 nM	C=CC(=O)N1CCC(N2Cc3cnc(Nc4ccc(N5CCN(C)CC5)cc4)nc3N(CC(F)F)C2=O)c2cccc(OC)c21 (centres unmarked) [Compound 134, 3-(1-acryloyl-8-methoxy-1,2,3,4-tetrahydroquinolin-4-yl)-1-(2,2-difluoroethyl)-7-((4-(4-methylpiperazin-1-yl)phenyl)amino)-3,4-dihydropyrimido[4,5-d]pyrimidin-2(1H)-one]
≥ 2500 nM	> 1000 nM	> 1000 nM	≥ 2500 nM	C=CC(=O)N1C[C@@H](N2Cc3cnc(Nc4ccc(N5CCN(C)CC5)cc4)nc3N(C)C2=O)C[C@@H]1C(=O)O [Compound 138, (2R,4S)-4-[1-methyl-7-[4-(4-methylpiperazin-1-yl)anilino]-2-oxo-4H-pyrimido[4,5-d]pyrimidin-S-yl]-1-prop-2-enoyl-pyrrolidine-2-carboxylic acid]
< 100 nM	> 700 nM	1.2 nM	< 100 nM	[2H]C1(N2Cc3cnc(Nc4cnn(CCO)c4)nc3N(C)C2=O)CCN(C(=O)C=C)c2ccccc21 (centres unmarked) [Compound 127]
500 to 2500 nM	> 1000 nM	> 1000 nM	100 to 500 nM	C=CC(=O)N(C)c1ccccc1CN1Cc2cnc(Nc3ccc(N4CCN(C)CC4)cc3)nc2N(C)C1=O [Compound 139, N-methyl-N-[2-[[1-methyl-7-[4-(4-methylpiperazin-1-yl)anilino]-2-oxo-4H-pyrimido[4,5-d]pyrimidin-S-yl]methyl]phenyl]prop-2-enamide]
< 100 nM	> 1000 nM	0.86 nM	< 100 nM	C=CC(=O)N1CC[C@H](N2Cc3cnc(Nc4ccc(N5CCN(C)CC5)cc4)nc3N(C3CCOC3)C2=O)c2cccc(C)c21 (stereo partly drawn) [Compound 151, 7-[4-(4-methylpiperazin-1-yl)anilino]-S-[(4S)-8-methyl-1-prop-2-enoyl-3,4-dihydro-2H-quinolin-4-yl]-1-tetrahydrofuran-S-yl-4H-pyrimido[4,5-d]pyrimidin-2-one]
< 100 nM	> 1000 nM	0.97 nM	< 100 nM	C=CC(=O)N1CC[C@H](N2Cc3cnc(Nc4ccc(N5CCN(C)CC5)cc4)nc3N(C)C2=O)c2cccc(C)c21 [Compound 140, 1-methyl-7-[4-(4-methylpiperazin-1-yl)anilino]-S-[(4S)-8-methyl-1-prop-2-enoyl-3,4-dihydro-2H-quinolin-4-yl]-4H-pyrimido[4,5-d]pyrimidin-2-one]
≥ 2500 nM	> 100 nM	62.9 nM	≥ 2500 nM	C=CC(=O)N1CCC(N2Cc3cnc(Nc4ccc(N5CCN(C)CC5)cc4)nc3N(C)C2=O)c2cccc(OC)c21 (single isomer, unassigned) [Compound 123]
≥ 2500 nM	> 1000 nM	> 1000 nM	500 to 2500 nM	C=CC(=O)N1CC[C@H](N2Cc3cnc(Nc4ccc(N5CCN(C)CC5)cc4)nc3N(C)C2=O)C[C@@H]1CO [Compound 146, 3-[(2R,4S)-2-(hydroxymethyl)-1-prop-2-enoyl-4-piperidyl]-1-methyl-7-[4-(4-methylpiperazin-1-yl)anilino]-4H-pyrimido[4,5-d]pyrimidin-2-one]
	> 100 nM	> 100 nM	≥ 2500 nM	C=CC(=O)N1CCC(N2Cc3cnc(Nc4ccc(N5CCN(C)CC5)cc4)nc3N(C)C2=O)c2cccc(OC)c21 (single isomer, unassigned) [Compound 124]
< 100 nM	> 1000 nM	1.17 nM	< 100 nM	C=CC(=O)N1CC[C@H](N2Cc3cnc(Nc4ccc(N5CCN(C)CC5)cc4)nc3N(C3CC(O)C3)C2=O)c2cccc(C)c21 (stereo partly drawn) [Compound 152, 1-(3-hydroxycyclobutyl)-7-[4-(4-methylpiperazin-1-yl)anilino]-S-[(4S)-8-methyl-1-prop-2-enoyl-3,4-dihydro-2H-quinolin-4-yl]-4H-pyrimido[4,5-d]pyrimidin-2-one]
≥ 2500 nM	> 100 nM	> 100 nM	≥ 2500 nM	C=CC(=O)N1CC[C@@H](N2Cc3cnc(Nc4cnn(CCO)c4)nc3N(C)C2=O)c2cccc(OC)c21 (single isomer, unassigned) [Compound 117]
< 100 nM	> 1000 nM	1.57 nM	< 100 nM	C=CC(=O)N1CC[C@H](N2Cc3cnc(Nc4ccc(CS(C)(=O)=O)cc4)nc3N(C)C2=O)c2cccc(C)c21 [Compound 144]
500 to 2500 nM	> 100 nM	> 100 nM	100 to 500 nM	C=CC(=O)N1CC[C@H](N2Cc3cnc(Nc4cnn(CCO)c4)nc3N(C)C2=O)c2cccc(OC)c21 [Compound 118]
500 to 2500 nM	> 1000 nM	> 1000 nM	500 to 2500 nM	C=CC(=O)N1CCC(N2Cc3cnc(Nc4ccc(N5CCN(C)CC5)cc4)nc3N(C)C2=O)c2cccc(C#N)c21 (centres unmarked) [Compound 150, 4-[1-methyl-7-[4-(4-methylpiperazin-1-yl)anilino]-2-oxo-4H-pyrimido[4,5-d]pyrimidin-S-yl]-1-prop-2-enoyl-3,4-dihydro-2H-quinoline-8-carbonitrile]
100 to 500 nM	> 1000 nM	> 1000 nM	100 to 500 nM	C=CC(=O)N1CC[C@@H](N2Cc3cnc(Nc4ccc(N5CCN(C)CC5)cc4)nc3N(C)C2=O)c2cccc(C)c21 [Compound 141]
< 100 nM	> 700 nM	0.9 nM	< 100 nM	[2H]C1(N2Cc3cnc(Nc4ccc(OCCN5CCCC5)cc4)nc3N(C)C2=O)CCN(C(=O)C=C)c2ccccc21 (centres unmarked) [Compound 128]
500 to 2500 nM	> 100 nM	> 100 nM	100 to 500 nM	C=CC(=O)N1CCC(n2c(=O)c3cnc(Nc4cnn(CCO)c4)nc3n(C)c2=O)c2ccccc21 (stereo not drawn) [Compound 122, 7-[[1-(2-hydroxyethyl)pyrazol-4-yl]amino]-1-methyl-S-(1-prop-2-enoyl-3,4-dihydro-2H-quinolin-4-yl)pyrimido[4,5-d]pyrimidine-2,4-dione]
≥ 2500 nM			500 to 2500 nM	[2H]C1(N2Cc3cnc(Nc4cnn(CCO)c4)nc3N(C)C2=O)CCN(C(=O)C=C)c2c(OC)cccc21 (centres unmarked) [Compound 129, 3-(4-deuterio-8-methoxy-1-prop-2-enoyl-2,3-dihydroquinolin-4-yl)-7-[[1-(2-hydroxyethyl)pyrazol-4-yl]amino]-1-methyl-4H-pyrimido[4,5-d]pyrimidin-2-one]
500 to 2500 nM			500 to 2500 nM	CN(C)C/C=C/C(=O)N1CCC(N2Cc3cnc(Nc4ccc(N5CCN(C)CC5)cc4)nc3N(C)C2=O)c2ccccc21 (centres unmarked) [Compound 065]
< 100 nM			< 100 nM	C=CC(=O)N1CCC(N2Cc3cnc(Nc4ccc(N5CCN(C)CC5)c(C(F)(F)F)c4)nc3N(C)C2=O)c2ccccc21 (centres unmarked) [Compound 071]
